Laboratory results published in patent US20160368919A1, “NOVEL PYRIDINE PYRAZINONES AS BET-FAMILY BROMODOMAIN INHIBITORS” (Pfizer Inc., priority 2015, published 2016).

Tests used:
[1] = tested on: LPS-induced IL-6 production in human whole blood; experiment: IL-6 human whole blood (HWB) assay, LPS-stimulated, HTRF detection; format: cell-based; conditions: 1 ng/ml LPS, 4 hours
Description: Compound effect on IL-6 production was determined using lipopolysaccharide (LPS)-stimulated human whole blood and an HTRF (Homogeneous Time-Resolved Fluorescence) IL-6 detection kit (Human IL6 HTRF Assay CisBio 62IL6PEC). HWB was collected by venous puncture from healthy donors, transferred to a 50 ml polypropylene tube containing sodium heparin (14.3 units per mL of HWB) and then placed in a 37° C. water bath until use. To start the assay, 80 μL of heparin-treated HWB containing 1 ng/ml of LPS (equivalent to LPS ˜EC80 with regard to stimulation of IL-6 production in HWB under these assay conditions) was added to each well of a 384-well, sterile, endotoxin-free, polypropylene plate (Greiner 781281) containing 160 nL of various concentrations of test compound (each plate also contained positive and negative control wells to define the upper and lower limits of the assay signal). The plate was then placed in a thermoshaker incubator set to 370C (Boekel 270440). The final assay concentration (FAC) of test compound ranged from 60 to 0.0006 μM and the FAC of DMSO was 0.2%. After 4 hours, the assay plate was removed from the incubator and centrifuged at 700×g for 10 minutes. 5 μL of the resulting upper plasma layer was removed from each well and diluted 1:2 with 1×Dulbecco's phosphate buffered saline (DPBS). 5 μL of this diluted plasma was then transferred to a white 384-well low volume assay plate (Greiner 784080) containing 5 μL of combined anti-IL-6-Cryptate and anti-IL-6-XL665 detection antibodies (per manufacturer's protocol). The plate was then sealed with a Top Seal (Perkin Elmer 6005185) and incubated at room temperature (RT, 20° C.). After 16-18 hrs (overnight), the HTRF assay signal was read on an Envision 2103 plate reader using a Lance Delfia Dual/Bias mirror TRF laser excitation and emission was measured at 665 nm and 615 nm respectively. The percent (%) effect was calculated for each concentration of test compound and was relative to the amount of HTRF signal produced by the positive and negative control wells contained within each assay plate. The concentrations and % effect values for test compounds were plotted versus each other with a proprietary curve fitting program using a four-parameter logistic dose response equation and the concentration of compound required for 50% effect (IC50) was determined.

BRD4 BD1 = biological target: T1, BRD4 BD1 (Homo sapiens, UniProt O60885); experiment: BRD4 BD1 Fluorescence Polarization (FP) competition binding assay; conditions: BRD4 BD1 40 nM, probe PFI-411FP 2 nM
T1 construct: His-tagged BRD4 BD1 (44-160); made in house
Description: Compound binding to BRD4 BD1 was assessed with a FP competition binding assay. […] All assay components were diluted in 50 mM HEPES pH 7.4 containing 0.08% bovine serum albumin (assay buffer). To start the assay, 8 μL of BRD4 BD1 was added to each well of a low volume 384-well black flat bottom microtiter plate (Corning 3820) containing 4 μl of various concentrations of test compound (each plate also contained positive and negative control wells to define the upper and lower limits of the assay signal). After addition of BRD4 BD1, the assay plate was incubated at room temperature (RT, 20° C.). After 15 minutes, 4 μL of PFI-411FP was added to each well and the assay plate was placed in the dark at RT. The final assay concentration (FAC) of PFI-411FP was 2 nM, the FAC of BRD4 BD1 was 40 nM, the FAC of test compound ranged from 120 to 0.0012 μM and the FAC of DMSO was 0.4%. After 60 min, polarization values were measured with an Envision 2103 multilabel reader (Perkin Elmer) using a Cy5 dual enhanced mirror and excitation at 620 nm and emission at 688 nm. The percent (%) effect was calculated for each concentration of test compound and was relative to the amount of polarization signal produced by the positive and negative control wells contained within each assay plate. The concentrations and % effect values for test compounds were plotted versus each other with a proprietary curve fitting program using a four-parameter logistic dose response equation and the concentration of compound required for 50% effect (IC50) was determined. The Ki values of competitive inhibitors were calculated using the equation described by Nikolovska-Coleska et al. (Development and optimization of a binding assay for the XIAP BIR3 domain using fluorescence polarization. Analytical Biochemistry (2004) 332: 261-273).

| Structure (SMILES) | IC50 [1] [nM] | IC50 (BRD4 BD1) [nM] |
| --- | --- | --- |
| CCC(=O)N(C)c1ccc2nc(NCCC(=O)O)c(=O)n(C3C(CC)CCC3CC)c2n1 (stereo not drawn) [Example 13, N-{4-(2,5-diethylcyclopentyl)-6-[methyl(propanoyl)amino]-3-oxo-3,4-dihdropyrido[2,3-b]pyrazin-2-yl}-beta-alanine] | 846 | 111 |
| COC[C@@H](c1ccccc1)n1c(=O)c(NCCC(=O)O)nc2ccc(N(C)C(C)=O)nc21 [Example 14, N-{6-[acetyl(methyl)amino]-4-[(1R)-2-methoxy-1-phenylethyl]-3-oxo-3,4-dihydropyrido[2,3-b]pyrazin-2-yl}-beta-alanine] | 4800 | 223 |
| CCC[C@H](COC)n1c(=O)c(NCCC(=O)O)nc2ccc(N(C)C(=O)CC)nc21 [Example 17, N-{4-[(2R)-1-methoxypentan-2-yl]-6-[methyl(propanoyl)amino]-3-oxo-3,4-dihydropyrido[2,3-b]pyrazin-2-yl}-beta-alanine] | 2430 | 268 |
| CCC(=O)N(C)c1ccc2nc(NC)c(=O)n(C(COC)COC)c2n1 [Example 20, N-(4-(1,3-dimethoxypropan-2-yl)-2-(methylamino)-3-oxo-3,4-dihydropyrido[2,3-b]pyrazin-6-yl)-N-methylpropionamide] | 1460 | 1070 |
| CC[C@@H](c1ccccc1)n1c(=O)c(NC(C)=O)nc2ccc(N(C)C(C)=O)nc21 [Example 21, N-{2-(acetylamino)-3-oxo-4-[(1S)-1-phenylpropyl]-3,4-dihydropyrido[2,3-b]pyrazin-6-yl}-N-methylacetamide] | 743 | 207 |
| CC[C@@H](c1ccccc1)n1c(=O)c(NCCC(=O)O)nc2ccc(N(C)C(=O)N(C)C)nc21 [Example 22, N-{6-[(dimethylcarbamoyl)(methyl)amino]-3-oxo-4-[(1S)-1-phenylpropyl]-3,4-dihydropyrido[2,3-b]pyrazin-2-yl}-beta-alanine] | 22500 | 913 |
| CCC(=O)N(C)c1ccc2nc(NCCC(=O)O)c(=O)n([C@H](c3ccccn3)C(C)C)c2n1 [Example 23, N-{6-[methyl(propanol)amino]-4-[(1S)-2-methyl-1-(pyridin-2-yl)propyl]-3-oxo-3,4-dihydropyrido[2,3-b]pyrazin-2-yl}-beta-alanine] | 2300 | 159 |
| CC[C@@H](c1ccccc1)n1c(=O)c(NCCC(=O)NC)nc2ccc(N(C)C(=O)C3CCO3)nc21 (stereo partly drawn) [Example 28, N-methyl-N-(2-{[3-(methylamino)-3-oxopropyl]amino}-3-oxo-4-[(1S)-1-phenylpropyl]-3,4-dihydropyrido[2,3-b]pyrazin-6-yl)oxetane-2-carboxamide] | 366 | 149 |
| CCC(=O)N(C)c1ccc2nc(NCC(=O)NC)c(=O)n([C@@H](CC)c3ccccc3)c2n1 [Example 29, N-methyl-N-(2-{[2-(methylamino)-2-oxoethyl]amino}-3-oxo-4-[(1S)-1-phenylpropyl]-3,4-dihydropyrido[2,3-b]pyrazin-6-yl)propanamide] | 239 | 102 |
| CCC(=O)N(C)c1ccc2nc(NCC(=O)NC)c(=O)n([C@H](c3ccccn3)C(C)C)c2n1 [Example 30, N-methyl-N-(2-{[2-(methylamino)-2-oxoethyl]amino}-4-[(1S)-2-methyl-1-(pyridin-2-yl)propyl]-3-oxo-3,4-dihydropyrido[2,3-b]pyrazin-6-yl)propanamide] | 722 | 348 |
| CCC(=O)N(C)c1ccc2nc(NCCC(=O)NC)c(=O)n([C@@H](COC)c3ccccc3)c2n1 [Example 31, N^3-{4-[(1R)-2-methoxy-1-phenylethyl]-6-[methyl(propanoyl)amino]-3-oxo-3,4-dihydropyrido[2,3-b]pyrazin-2-yl}-N-methyl-beta-alaninamide] | 164 | 110 |
| CCC(=O)N(C)c1ccc2nc(NCCC(=O)NC)c(=O)n([C@@H](CC)c3ccccc3)c2n1 [Example 32, N-methyl-N^3-{6-[methyl(propanoyl)amino]-3-oxo-4-[(1S)-1-phenylpropyl]-3,4-dihydropyrido[2,3-b]pyrazin-2-yl}-beta-alaninamide] | 266 | 64.8 |
| CCC(=O)N(C)c1ccc2nc(NCCC(=O)NC)c(=O)n([C@@H](CC)c3ccccn3)c2n1 [Example 33, N-methyl-N^3-{6-[methyl(propanoyl)amino]-3-oxo-4-[(1S)-1-(pyridin-2-yl)propyl]-3,4-dihydropyrido[2,3-b]pyrazin-2-yl}-beta-alaninamide] | 452 | 363 |
| CCC(=O)N(C)c1ccc2nc(NCCC(=O)NC)c(=O)n([C@H](c3ccccn3)C(C)C)c2n1 [Example 34, N-methyl-N^3-{6-[methyl(propanoyl)amino]-4-[(1S)-2-methyl-1-(pyridin-2-yl)propyl]-3-oxo-3,4-dihydropyrido[2,3-b]pyrazin-2-yl}-beta-alaninamide] | 426 | 167 |
| COc1ccccc1[C@H](C)n1c(=O)c(NCCN2CCOCC2)nc2ccc(-c3c(C)noc3C)nc21 [Example 35, 6-(3,5-dimethyl-1,2-oxazol-4-yl)-4-[(1S)-1-(2-methoxyphenyl)ethyl]-2-{[2-(morpholin-4-yl)ethyl]amino}pyrido[2,3-b]pyrazin-3(4H)-one] | 746 | 195 |
| CC[C@@H](c1ccccc1)n1c(=O)c(NCCN2CCOCC2)nc2ccc(-c3c(C)noc3C)nc21 [Example 39, 6-(3,5-dimethyl-1,2-oxazol-4-yl)-2-{[2-(morpholin-4-yl)ethyl]amino}-4-[(1S)-1-phenylpropyl]pyrido[2,3-b]pyrazin-3(4H)-one] | 823 | 123 |
| Cc1noc(C)c1-c1ccc2nc(NCCN3CCOCC3)c(=O)n([C@@H](C)c3ccccc3)c2n1 [Example 40, 6-(3,5-dimethyl-1,2-oxazol-4-yl)-2-{[2-(morpholin-4-yl)ethyl]amino}-4-[(1S)-1-phenylethyl]pyrido[2,3-b]pyrazin-3(4H)-one] | 1390 | 225 |
| Cc1noc(C)c1-c1ccc2nc(NCC(=O)O)c(=O)n([C@@H](C)c3ccccc3)c2n1 [Example 41, N-{6-(3,5-dimethyl-1,2-oxazol-4-yl)-3-oxo-4-[(1S)-1-phenylethyl]-3,4-dihydropyrido[2,3-b]pyrazin-2-yl}glycine] | 35500 | 585 |
| Cc1noc(C)c1-c1ccc2nc(NCCC(=O)O)c(=O)n([C@@H](C)c3ccccc3)c2n1 [Example 42, N-{6-(3,5-dimethyl-1,2-oxazol-4-yl)-3-oxo-4-[(1S)-1-phenylethyl]-3,4-dihydropyrido[2,3-b]pyrazin-2-yl}-beta-alanine] | 6160 | 146 |
| COc1ccccc1[C@H](C)n1c(=O)c(NCCC(=O)O)nc2ccc(-c3c(C)noc3C)nc21 [Example 43, N-{6-(3,5-dimethyl-1,2-oxazol-4-yl)-4-[(1S)-1-(2-methoxyphenyl)ethyl]-3-oxo-3,4-dihydropyrido[2,3-b]pyrazin-2-yl}-beta-alanine] | 8350 | 576 |
| CC[C@@H](c1ccccc1)n1c(=O)c(NCCC(=O)O)nc2ccc(-c3c(C)noc3C)nc21 [Example 44, N-{6-(3,5-dimethyl-1,2-oxazol-4-yl)-3-oxo-4-[(1S)-1-phenylpropyl]-3,4-dihydropyrido[2,3-b]pyrazin-2-yl}-beta-alanine] | 2560 | 89.8 |
